Measurements: PubChem BioAssay AID2060506 (Molecular Pharmacology Branch, DTP, NCI, 2025)
Where “and” joins values, the source holds several entries; their conditions need not be identical. Identical values can stand only once. One block for each compound: values may come before it.

Tested on: 598228-144-R-J1-PDC complex spheroid viability
Test: Anticancer human tumor 598228-144-R-J1-PDC patient-derived serous endometrial adenocarcinoma cell line growth inhibition [GQUAD]
Conditions: for viability, T/C: stronger effect = lower value
Source text: DNA G-quadruplex Stabilizer Agents in Combinations in Complex Spheroids
A high-throughput screen of multi-cell type tumor spheroids was designed to identify active combinations of DNA G-quadruplex stabilizer agents and targeted small molecules. Complex spheroids include a stromal component modeled by human endothelial cells (HUVEC) and fibroblasts modeled by human mesenchymal stem cells (MSCs). The concentration ranges selected for each drug and investigational agent were based upon clinically achievable concentrations if the clinical Cmax of the agent was known.
Compounds. The drugs and investigational agents: pidnarulex (CX-5461; NSC782164), APTO-253 (NSC789042), BRACO-19 (NSC847499), peposertib (NSC802822), ceralasertib (NSC780249), elimusertib (NSC800525), camonsertib (NSC841442), AZD-1390 (NSC803789), olaparib (NSC753686), talazoparib (NSC767125), ART-558 (NSC835418), sotorasib (NSC818433), MRTX-1133 (NSC836407), SN-38 (NSC673596), topotecan (NSC609699), etoposide (NSC141540), doxorubicin (NSC123127), gemcitabine (NSC613327), 5-fluorouracil (NSC19893), paclitaxel (NSC125973), vemurafenib (NSC761431), panobinostat (NSC761190), R-306465 (JNJ-16241199; NSC773264), adavosertib (NSC754352), TP-3654 (NSC805149), carboplatin (NSC241240), KSQ-4279 (NSC840948), and staurosporine (NSC755774) were obtained from the National Cancer Institute (NCI) Developmental Therapeutics Program Chemical Repository (34). The FDA-approved anticancer drug set is available from the NCI Developmental Therapeutics Program. […] The stock solutions were prepared in dimethyl sulfoxide (DMSO, Sigma-Aldrich, St. Louis, MO, cat. D2650) at 800-fold the tested concentration and stored at -70 degrees C prior to their use. All drugs and investigational agents were tested over a range starting from a high concentration at or near the clinical Cmax and decreasing in half-log increments. If the clinical Cmax for an agent had not been determined, the highest concentration tested was 10 microM.
2.3 Cell Culture. All cells were maintained in an incubator at 37 degrees C and 5% CO2 with 95% humidity. The PDC lines were cultured according to standard operating procedures established by the NCI PDMR. All PDCs were thawed and cultured in Matrigel-coated flasks prepared with a working solution of 1X Ham's F-12 nutrient mix, without supplementation (Invitrogen, cat. 11765054), 100 U/mL penicillin-streptomycin (Invitrogen, cat. 15140122), and 2.5% Matrigel (Corning Inc., cat. 354248) for the first three passages. The 857933-349-R-J2-PDC line was cultured in 6C/Colon 1B media, which includes advanced DMEM/F-12 (Thermo Fisher Scientific, cat. 12634028), 10 mM HEPES (Thermo Fisher Scientific, cat. 15630080), 1X GlutaMAX supplement (Thermo Fisher Scientific, cat. 35050061), 0.1 mg/mL primocin (InvivoGen, cat. ant-pm-2), 10% defined fetal bovine serum, heat inactivated (HyClone Laboratories Inc., cat. SH30070.03HI), 50% L-WRN conditioned media (ATCC, cat. CRL-3276), 1.25 mM N-Acetyl-L-cysteine (Sigma-Aldrich, cat. A9165), 10 mM nicotinamide (Sigma-Aldrich, cat. N0636), 1X B-27 supplement (Thermo Fisher Scientific, cat. 17504044), 1X N-2 supplement (Thermo Fisher Scientific, cat. 17502048), 10 microM Y-27632 dihydrochloride (Tocris Bioscience, cat. 1254), and 50 ng/mL human EGF recombinant protein (Thermo Fisher Scientific, cat. PHG0311). The 485176-168-R4-J1-PDC line was cultured in Panc media, which includes all 6C/Colon 1B media components plus 100 ng/mL human FGF-10 (Thermo Fisher Scientific, cat. 100-26), 500 nM SB-431542 (Selleckchem, cat. S1067), and gastrin (Tocris, cat. 3006).
[…]

[1] = curve of first compound, second compound 0.0316 µM
[2] = curve of first compound, second compound 0.1 µM
[3] = curve of first compound, second compound 0.316 µM
[4] = curve of first compound, second compound 1 µM
[5] = curve of first compound, second compound 3.16 µM
[6] = curve of first compound, second compound 10 µM
[7] = second compound 0.0316 µM, first compound 0.0316 µM
[8] = second compound 0.0316 µM, first compound 0.1 µM
[9] = second compound 0.0316 µM, first compound 0.316 µM
[10] = second compound 0.0316 µM, first compound 1 µM
[11] = second compound 0.0316 µM, first compound 3.16 µM
[12] = second compound 0.0316 µM, first compound 10 µM
[13] = second compound 0.1 µM, first compound 0.0316 µM
[14] = second compound 0.1 µM, first compound 0.1 µM
[15] = second compound 0.1 µM, first compound 0.316 µM
[16] = second compound 0.1 µM, first compound 1 µM
[17] = second compound 0.1 µM, first compound 3.16 µM
[18] = second compound 0.1 µM, first compound 10 µM
[19] = second compound 0.316 µM, first compound 0.0316 µM
[20] = second compound 0.316 µM, first compound 0.1 µM
[21] = second compound 0.316 µM, first compound 0.316 µM
[22] = second compound 0.316 µM, first compound 1 µM
[23] = second compound 0.316 µM, first compound 3.16 µM
[24] = second compound 0.316 µM, first compound 10 µM
[25] = second compound 1 µM, first compound 0.0316 µM
[26] = second compound 1 µM, first compound 0.1 µM
[27] = second compound 1 µM, first compound 0.316 µM
[28] = second compound 1 µM, first compound 1 µM
[29] = second compound 1 µM, first compound 3.16 µM
[30] = second compound 1 µM, first compound 10 µM
[31] = second compound 3.16 µM, first compound 0.0316 µM
[32] = second compound 3.16 µM, first compound 0.1 µM
[33] = second compound 3.16 µM, first compound 0.316 µM
[34] = second compound 3.16 µM, first compound 1 µM
[35] = second compound 3.16 µM, first compound 3.16 µM
[36] = second compound 3.16 µM, first compound 10 µM
[37] = second compound 10 µM, first compound 0.0316 µM
[38] = second compound 10 µM, first compound 0.1 µM
[39] = second compound 10 µM, first compound 0.316 µM
[40] = second compound 10 µM, first compound 1 µM
[41] = second compound 10 µM, first compound 3.16 µM
[42] = second compound 10 µM, first compound 10 µM
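Further: spheroids exposed to the agents for one week before reading.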
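Wherever viability, T/C is given: percent of vehicle DMSO control viability so 100% = untreated growth.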

Compound: C#Cc1c(F)ccc2cc(O)cc(-c3ncc4c(N5CC6CCC(C5)N6)nc(OCC56CCCN5CC(F)C6)nc4c3F)c12 (stereo not drawn) + CN(C)c1ccc(Nc2c3ccc(NC(=O)CCN4CCCC4)cc3nc3cc(NC(=O)CCN4CCCC4)ccc23)cc1
- IC50 [1]: > 10 µM
- IC50 [2]: > 10 µM
- IC50 [3]: > 10 µM
- IC50 [4]: > 10 µM
- IC50 [5]: > 10 µM
- IC50 [6]: 4.61 µM
- viability, T/C [7]: 92.2%
- viability, T/C [8]: 104%
- viability, T/C [9]: 104%
- viability, T/C [10]: 88.5%
- viability, T/C [11]: 88.9%
- viability, T/C [12]: 101%
- viability, T/C [13]: 103%
- viability, T/C [14]: 118%
- viability, T/C [15]: 104%
- viability, T/C [16]: 100%
- viability, T/C [17]: 88.5%
- viability, T/C [18]: 94.9%
- viability, T/C [19]: 102%
- viability, T/C [20]: 94.1%
- viability, T/C [21]: 115%
- viability, T/C [22]: 83.5%
- viability, T/C [23]: 102%
- viability, T/C [24]: 88%
- viability, T/C [25]: 87%
- viability, T/C [26]: 102%
- viability, T/C [27]: 110%
- viability, T/C [28]: 104%
- viability, T/C [29]: 98.9%
- viability, T/C [30]: 92.9%
- viability, T/C [31]: 106%
- viability, T/C [32]: 101%
- viability, T/C [33]: 93.7%
- viability, T/C [34]: 89.8%
- viability, T/C [35]: 83.3%
- viability, T/C [36]: 84.1%
- viability, T/C [37]: 86.1%
- viability, T/C [38]: 89.3%
- viability, T/C [39]: 93.9%
- viability, T/C [40]: 66%
- viability, T/C [41]: 64.2%
- viability, T/C [42]: 28.7%

- IC50 (curve of compound): 3.6 µM and 1.8 µM and 3.15 µM
Compound: COc1ccc([C@@H](O)c2cc(-c3ncnc4cc(N5CCOCC5)ccc34)c(F)cc2Cl)nn1
- viability, T/C (compound 0.0316 µM): 97.8% and 102% and 84.3%
- viability, T/C (compound 0.1 µM): 90% and 101% and 85.3%
- viability, T/C (compound 0.316 µM): 89.9% and 67.4% and 82.6%
- viability, T/C (compound 1 µM): 74.7% and 62.1% and 82.8%
- viability, T/C (compound 3.16 µM): 52.1% and 42.8% and 49.9%
- viability, T/C (compound 10 µM): 32.1% and 30% and 30.5%

- IC50 (curve of compound): < 0.0316 µM
Compound: Nc1ccn(C2OC(CO)C(O)C2(F)F)c(=O)n1 (stereo not drawn)
- viability, T/C (compound 0.0316 µM): 44.7% and 45.7% and 52.1%
- viability, T/C (compound 0.1 µM): 46.9% and 45.7% and 47.2%
- viability, T/C (compound 0.316 µM): 49.2% and 45.3% and 41.9%
- viability, T/C (compound 1 µM): 52% and 47.8% and 53%
- viability, T/C (compound 3.16 µM): 40.2% and 36.2% and 38.9%
- viability, T/C (compound 10 µM): 47.3% and 43.5% and 45.3%

Compound: CCCS(=O)(=O)Nc1ccc(F)c(C(=O)c2c[nH]c3ncc(-c4ccc(Cl)cc4)cc23)c1F + CN(C)c1ccc(Nc2c3ccc(NC(=O)CCN4CCCC4)cc3nc3cc(NC(=O)CCN4CCCC4)ccc23)cc1
- IC50 [1]: 7.87 µM
- IC50 [2]: 7.44 µM
- IC50 [3]: 7.33 µM
- IC50 [4]: 7.65 µM
- IC50 [5]: 7.08 µM
- IC50 [6]: 5.21 µM
- viability, T/C [7]: 105%
- viability, T/C [8]: 121%
- viability, T/C [9]: 93.8%
- viability, T/C [10]: 107%
- viability, T/C [11]: 110%
- viability, T/C [12]: 34.8%
- viability, T/C [13]: 94.3%
- viability, T/C [14]: 104%
- viability, T/C [15]: 111%
- viability, T/C [16]: 109%
- viability, T/C [17]: 123%
- viability, T/C [18]: 29.8%
- viability, T/C [19]: 122%
- viability, T/C [20]: 108%
- viability, T/C [21]: 97.1%
- viability, T/C [22]: 124%
- viability, T/C [23]: 93.2%
- viability, T/C [24]: 34.1%
- viability, T/C [25]: 89.3%
- viability, T/C [26]: 99.2%
- viability, T/C [27]: 110%
- viability, T/C [28]: 133%
- viability, T/C [29]: 108%
- viability, T/C [30]: 32.6%
- viability, T/C [31]: 94.1%
- viability, T/C [32]: 95.4%
- viability, T/C [33]: 80.8%
- viability, T/C [34]: 118%
- viability, T/C [35]: 100%
- viability, T/C [36]: 29.3%
- viability, T/C [37]: 103%
- viability, T/C [38]: 75.3%
- viability, T/C [39]: 100%
- viability, T/C [40]: 86.8%
- viability, T/C [41]: 74%
- viability, T/C [42]: 19.2%
